{"source": "patent US12390470B2", "about": "“1-methylxanthine-based bioactive composition and method of use thereof” (Ingenious Ingredients, LP, priority 2021, dated 2025)", "format_in_all_cases": "in vivo", "key": {"[1]": {"test_system": "Brain-derived neurotrophic factor (BDNF)", "assay": "BDNF level in young and old rats", "protocol": "(§1) Twenty-four young (6-8 Week) and twenty-four old (14-16 Months) Swiss Albino Wistar rats were housed in an animal room at a constant temperature (22±3° C.) and humidity (30%-70%) under a 12:12 h light-dark cycle with standard laboratory diet (Purina 5L79, Rat and Mouse 18% protein; PMI Nutrition International, Brentwood, MO, USA). Distilled water was provided ad libitum. All animal experiments were reviewed and approved by the Institutional Animal Ethical Committee (IAEC) of Radiant Research Services Pvt. Ltd (Bangalore, India). All research was conducted in accordance with the guidelines of the committee for the purpose of control and supervision of experiments on animals.\n(§2) After one week of acclimation, the animals were randomly divided by body weight and age into six groups (n=8 per group in each test) for oral treatment once a day, at approximately same time each day (±1 hour), for 10 consecutive days: (1) vehicle control or (2) 1-methylxanthine or (3) 1-methylxanthine plus paraxanthine. The dose administered to the rat was calculated using US Food and Drug Administration for human equivalence doses (HED), assuming a human weight of 60 kg. […] Food intake was monitored daily while water intake was ad libitum. […] Body weight was recorded weekly. […]"}, "[2]": {"test_system": "Swiss Albino Wistar rats", "assay": "Morris water maze test in young and old rats", "conditions": "HED 100 mg 1-MX (+25 mg PX)", "protocol": "as §1, §2"}, "[3]": {"test_system": "acetylcholine", "assay": "Acetylcholine level in young and old rats", "protocol": "as §1, §2"}, "[4]": {"test_system": "male Swiss Albino mice", "assay": "Forelimb grip strength test", "protocol": "as §1, with “8-week-old male” for “young (6-8 Week) and twenty-four old (14-16 Months)”, “mice” for “Wistar rats”\nAfter one week of acclimation, the animals were randomly divided by body weight into three groups (n=8 per group in each test) for oral treatment once a day, at approximately same time each day (±1 hour), for 28 consecutive days: (1) vehicle control or (2) 1-methylxanthine or (3) 1-methylxanthine plus paraxanthine. The dose administered to the mice was calculated using US Food and Drug Administration for human equivalence doses (HED), assuming a human weight of 60 kg. The following HED was used in this study: 100 mg 1-methylxanthine (Ingenious Ingredients, L.P Lewisville, TX, USA; mouse dose: 20.5 mg/kg bw/day), or 100 mg 1-methylxanthine (Ingenious Ingredients, L.P Lewisville, TX, USA; mouse dose: 20.5 mg/kg bw/day) plus 100 mg paraxanthine (ENFINITY™, Ingenious Ingredients, L.P Lewisville, TX, USA; mouse dose: 20.5 mg/kg bw/day). 0.5% Carboxy Methyl Cellulose sodium was used as vehicle and the test item formulations were prepared daily. […] Food intake was monitored daily while water intake was ad libitum. BW was recorded weekly. […]\nThe forelimb grip strength was measured on day 0 and day 28 by using a stainless-steel grill to assess muscle strength (Orchid Scientific & Innovative India Pvt Ltd, India). Grip strength was measured one hour after treatment. […] Each animal performed three independent trials and the mean of the three trials was calculated and recorded."}, "[5]": {"test_system": "glutathione", "assay": "Glutathione level in young and old rats", "protocol": "as §1, §2"}}, "note": "Values joined by “and” are separate entries in the source; they are usually repeats but may differ in a detail not shown here. Equal values may be shown once.", "data": [{"smiles": "Cn1c(=O)[nH]c2nc[nH]c2c1=O", "note": "[1-methylxanthine, 1-Methyl-3H-purine-2,6-dione]", "values": [{"measurement": "BDNF levels", "setting": "[1]; old rats", "value": "793.81 ± 33.85", "unit": "pg/mL"}, {"measurement": "BDNF levels", "setting": "[1]; young rats", "value": "869.04 ± 32.79", "unit": "pg/mL"}, {"measurement": "Escape latency, Morris water maze", "setting": "[2]; old rats", "value": "41.71 ± 1.81", "unit": "s"}, {"measurement": "Escape latency, Morris water maze", "setting": "[2]; young rats", "value": "32.18 ± 1.10", "unit": "s"}, {"measurement": "acetylcholine level", "setting": "[3]; old rats, listed as 1-MX", "value": "56.33±3.42 U/ml and 56.33±3.58 U/ml"}, {"measurement": "acetylcholine level", "setting": "[3]; young rats", "value": "63.35±4.12", "unit": "U/ml"}, {"measurement": "Forelimb grip strength", "setting": "[4]; baseline", "value": "91.1±1.3", "unit": "gf"}, {"measurement": "changes in strength greater than control", "setting": "[4]; baseline to day 28", "value": 15.9, "unit": "%"}, {"measurement": "Forelimb grip strength", "setting": "[4]; day 28, oral 20.5 mg/kg bw/day each, 28 days, with exercise training", "value": "126.9±6.0", "unit": "gf"}, {"measurement": "glutathione levels", "setting": "[5]; old rats", "value": "25.29 ± 0.93", "unit": "µg/mL"}, {"measurement": "glutathione levels", "setting": "[5]; young rats, listed as 1-MX", "value": "28.57 ± 1.36 µg/mL and 28.57 ± 1.65 µg/mL"}]}]}
